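Tested at 5 concentrations; 48 h exposure; 96-well plates; endpoints linearly interpolated, else capped at highest concentration. Definition used: TGI = concentration required for complete inhibition of growth.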
Assays:
Experiment in all cases: NCI anticancer screen, dose series, 48 h
786-0 renal = system: 786-0 renal
ACHN renal = system: ACHN renal
HT29 colon = system: HT29 colon
M14 melanoma = system: M14 melanoma
MALME-3M melanoma = system: MALME-3M melanoma
MCF7 breast = system: MCF7 breast
OVCAR-3 ovarian = system: OVCAR-3 ovarian
TK-10 renal = system: TK-10 renal
U251 CNS = system: U251 CNS
UACC-62 melanoma = system: UACC-62 melanoma

Row | Compound | TGI (786-0 renal) | TGI (ACHN renal) | TGI (HT29 colon) | TGI (M14 melanoma) | TGI (MALME-3M melanoma) | TGI (MCF7 breast) | TGI (OVCAR-3 ovarian) | TGI (TK-10 renal) | TGI (U251 CNS) | TGI (UACC-62 melanoma)
1 | COC(=O)C(COC(=O)/C=C/c1ccc(OC(C)=O)c(OC(C)=O)c1)OC(=O)/C=C/c1ccc(OC(C)=O)c(OC(C)=O)c1 (centres undefined) | 24 µM | 27.8 µM | 19.7 µM | 20.6 µM | 45.6 µM | 21.8 µM | 29.9 µM | 32.8 µM | 20.4 µM | 30.9 µM
2 | CC(C)(C)N1Cc2ccccc2/C(=C/Sc2ccccc2)C1=O | 24.8 µM | 32 µM | 35.6 µM | 25.2 µM | 28.7 µM | 24.3 µM | 25.1 µM | 34.8 µM | 27.3 µM | 24.3 µM
3 | CC1(C)[C@@H]2C[C@H]1c1cnc(-c3ccccn3)cc1C2[C@@H]1c2cc(-c3ccccn3)ncc2[C@@H]2C[C@H]1C2(C)C (some centres undefined) | > 100 µM | > 100 µM | > 100 µM | > 100 µM | > 100 µM | > 100 µM | > 100 µM | 75.1 µM | > 100 µM | > 100 µM
4 | COc1ccc(NC2Oc3cc4c(cc3C(c3cc(OC)c(O)c(OC)c3)C2C)OCO4)cc1 (centres undefined) | 37.9 µM | 32.1 µM | > 100 µM | > 100 µM | 35.2 µM | > 100 µM | > 100 µM | 17.7 µM | 35.1 µM | 35.2 µM
5 | Nc1nc2c(ncn2C2C=CC(CO)O2)c(=O)[nH]1 (centres undefined) | – | – | > 100 µM | > 100 µM | > 100 µM | > 100 µM | > 100 µM | > 100 µM | > 100 µM | –
6 | COC(=O)c1cncc2c1CC1C3(C(=O)OC)C=NC(C4C(CO)=CCC43)C21C (centres undefined) | > 100 µM | > 100 µM | > 100 µM | > 100 µM | > 100 µM | > 100 µM | – | > 100 µM | > 100 µM | –
7 | Cc1ccc(O)c(C2=NNC(c3cccc(Br)c3)C2)c1 (centres undefined) | > 100 µM | > 100 µM | > 100 µM | > 100 µM | > 100 µM | > 100 µM | > 100 µM | > 100 µM | > 100 µM | > 100 µM
8 | O=C(O)c1ccc(Nc2nc3cc(C(F)(F)F)ccc3nc2C(=O)O)cc1 | > 100 µM | > 100 µM | > 100 µM | – | > 100 µM | > 100 µM | > 100 µM | – | > 100 µM | –
9 | COc1ccc(OC)c2cc(Cc3ccc(N(C)C)cc3)c(=O)c(Cc3ccc(N(C)C)cc3)cc12 | > 100 µM | > 100 µM | > 100 µM | > 100 µM | > 100 µM | > 100 µM | > 100 µM | – | > 100 µM | > 100 µM
10 | O=C1NC(N/N=C\c2ccccc2)=N/C1=C/c1ccc(Cl)cc1 | > 100 µM | 30 µM | > 100 µM | > 100 µM | 62.1 µM | 57.4 µM | 39.7 µM | > 100 µM | 76.9 µM | –
11 | COC(=O)C(C)Sc1nc2cc(Cl)ccc2s1 (centres undefined) | > 100 µM | > 100 µM | > 100 µM | > 100 µM | > 100 µM | > 100 µM | > 100 µM | – | > 100 µM | > 100 µM

From PubChem BioAssay (NCI)
